According to BindingDB's records for doi:10.1021/jm021050c (Universit&#233, 2003):

Each molecule was assayed against imidazoline I2 binding site (Oryctolagus cuniculus) (assay: In vitro binding affinity determined against imidazoline receptor I-2 using rabbit kidney preparation).

SMILES | Ki [nM]
c1cc2c3c(c1)OC(C1=NCCN1)CN3CCCC2 (stereo unspecified) [2-(4,5-Dihydro-1H-imidazol-2-yl)-1,2,7,8,9,10-hexahydro-3-oxa-10a-aza-cyclohepta[de]naphthalene] | 643
CN1CC(C)(C2=NCCN2)Oc2ccccc21 (stereo unspecified) [2-(4,5-Dihydro-1H-imidazol-2-yl)-2,4-dimethyl-3,4-dihydro-2H-benzo[1,4]oxazine] | > 10000
c1ccc2c(c1)NCC(C1=NCCN1)O2 (stereo unspecified) [2-(4,5-Dihydro-1H-imidazol-2-yl)-3,4-dihydro-2H-benzo[1,4]oxazine] | 51
Cc1cccc2c1N(C)CC(C1=NCCN1)O2 (stereo unspecified) [2-(4,5-Dihydro-1H-imidazol-2-yl)-4,5-dimethyl-3,4-dihydro-2H-benzo[1,4]oxazine] | 470
Cc1cc(C)c2c(c1)N(C)CC(C1=NCCN1)O2 (stereo unspecified) [2-(4,5-Dihydro-1H-imidazol-2-yl)-4,6,8-trimethyl-3,4-dihydro-2H-benzo[1,4]oxazine] | > 1000
Cc1ccc2c(c1)OC(C1=NCCN1)CN2C (stereo unspecified) [2-(4,5-Dihydro-1H-imidazol-2-yl)-4,7-dimethyl-3,4-dihydro-2H-benzo[1,4]oxazine] | 47
Cc1cccc2c1OC(C1=NCCN1)CN2C (stereo unspecified) [2-(4,5-Dihydro-1H-imidazol-2-yl)-4,8-dimethyl-3,4-dihydro-2H-benzo[1,4]oxazine] | 54
CCCC1(C2=NCCN2)CN(C)c2ccccc2O1 (stereo unspecified) [2-(4,5-Dihydro-1H-imidazol-2-yl)-4-methyl-2-propyl-3,4-dihydro-2H-benzo[1,4]oxazine] | 8530
COC(=O)c1ccc2c(c1)N(C)CC(C1=NCCN1)O2 (stereo unspecified) [2-(4,5-Dihydro-1H-imidazol-2-yl)-4-methyl-3,4-dihydro-2H-benzo[1,4]oxazine-6-carboxylic acid methyl ester] | 7
CN1CC(C2=NCCN2)Oc2cc3ccccc3cc21 (stereo unspecified) [2-(4,5-Dihydro-1H-imidazol-2-yl)-4-methyl-3,4-dihydro-2H-naphtho[2,3-b][1,4]oxazine] | 278
CCOCc1ccc2c(c1)N(C)CC(C1=NCCN1)O2 (stereo unspecified) [2-(4,5-Dihydro-1H-imidazol-2-yl)-6-ethoxymethyl-4-methyl-3,4-dihydro-2H-benzo[1,4]oxazine] | 17
COc1cc(=O)n2c3c(cccc13)OC(C1=NCCN1)C2 (stereo unspecified) [2-(4,5-Dihydro-1H-imidazol-2-yl)-6-methoxy-2,3-dihydro-1-oxa-3a-aza-phenalen-4-one] | 750
Cc1ccc2c3c1CCCN3CC(C1=NCCN1)O2 (stereo unspecified) [2-(4,5-Dihydro-1H-imidazol-2-yl)-7-methyl-2,3,5,6-tetrahydro-4H-1-oxa-3a-aza-phenalene] | > 1000
c1cc2c3c(c1)OC(C1=NCCN1)CN3CC2 (stereo unspecified) [4-(4,5-Dihydro-1H-imidazol-2-yl)-1,2,3,4-tetrahydro-5-oxa-2a-aza-acenaphthylene] | 33
CN1CC(C2=NCCN2)Oc2ccc(Cl)cc21 (stereo unspecified) [6-Chloro-2-(4,5-dihydro-1H-imidazol-2-yl)-4-methyl-3,4-dihydro-2H-benzo[1,4]oxazine] | 173
CN1CC(C2=NCCN2)Oc2ccc(CO)cc21 (stereo unspecified) [[2-(4,5-Dihydro-1H-imidazol-2-yl)-4-methyl-3,4-dihydro-2H-benzo[1,4]oxazin-6-yl]-methanol] | 100
